In patent US8017612B2, “Piperazine compound and use thereof as a HCV polymerase inhibitor” (priority 2006, dated 2011):

Experiments:
[1] = target: T1, HCV polymerase (NS5B) type 1b (Hepatitis C virus genotype 1b, UniProt P26663); assay: Assay of enzyme (HCV polymerase) inhibitory activity, type 1b enzyme; assay type: biochemical, HCV BK strain (type 1b); conditions: HCV polymerase inhibitory activity IC50, 1b, type 1b enzyme
T1 construct: a region encoding NS5B (J Virol 1991 March, 65(3), 1105-13, 544 amino acids after deletion of 47 amino acids on the C-terminal); 6xHis (C); made in house; host or cells: Escherichia coli
Summary of the method: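 IC50 derived from [3H]UTP incorporation into TCA-insoluble RNA, compared with and without test compound. Reaction (25 °C, 60 min, Tris pH 7.5, 5 mM MgCl2): E. coli-expressed 1b NS5B Δ47 with His tag at 0.5 μg/ml, 5 μg/ml run-off substrate RNA, ATP/GTP/CTP 50 μM, UTP 2 μM.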

[2] = target: T2, HCV polymerase (NS5B) type 1a (Hepatitis C virus genotype 1a, UniProt P26664); assay: Assay of enzyme (HCV polymerase) inhibitory activity, type 1a enzyme; assay type: biochemical, HCV type 1a (cloned from the blood of patients); conditions: HCV polymerase inhibitory activity IC50, 1a, type 1a enzyme
T2 construct: made in house; host or cells: Escherichia coli (by the 'similar method' of the 1b enzyme)
Summary of the method: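 Reactions ran 60 min at 25° C in 20 mM Tris-HCl pH 7.5, 5 mM MgCl2, 50 mM NaCl, holding genotype 1a NS5B (1.5 μg/ml, Δ47 C-terminus, 6His), substrate RNA 5 μg/ml, UTP 2 μM with tritiated UTP and other NTPs 50 μM. IC50 derived from incorporated radiolabel in filter-trapped RNA relative to uninhibited reaction.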

| Structure (SMILES) | IC50 [1] | IC50 [2] |
| --- | --- | --- |
| Cc1nc(Cl)c2sc(N3CCN(S(=O)(=O)c4ccc(C(F)(F)F)cc4)[C@@H](C(=O)NCc4ccc(OC(F)(F)F)cc4)C3)nc2n1 [Example 927, (R)-4-(7-chloro-5-methyl-thiazolo[4,5-d]pyrimidin-2-yl)-1-(4-trifluoromethyl-benzenesulfonyl)-piperazine-2-carboxylic acid 4-trifluoromethoxy-benzylamide] | < 100 nM | < 100 nM |
| CCC(F)(F)c1ccc(CNC(=O)[C@H]2CN(c3nc4nc(C)nc(Cl)c4s3)CCN2S(=O)(=O)c2ccc(OC(F)(F)F)cc2)cc1 [Example 928, (R)-4-(7-chloro-5-methyl-thiazolo[4,5-d]pyrimidin-2-yl)-1-(4-trifluoromethoxy-benzenesulfonyl)-piperazine-2-carboxylic acid 4-(1,1-difluoro-propyl)-benzylamide] | < 100 nM | < 100 nM |
| COc1ncc2sc(N3CCN(S(=O)(=O)c4ccc(OC(F)(F)F)cc4)[C@@H](C(=O)NCc4ccc(OC(F)(F)F)cc4)C3)nc2n1 [Example 929, (R)-4-(5-methoxy-thiazolo[4,5-d]pyrimidin-2-yl)-1-(4-trifluoromethoxy-benzenesulfonyl)-piperazine-2-carboxylic acid 4-trifluoromethoxy-benzylamide] | < 100 nM | < 100 nM |
| CN(C)C(=O)c1nncc2sc(N3CCN(S(=O)(=O)c4ccc(OC(F)(F)F)cc4)[C@@H](C(=O)NCc4ccc(OC(F)(F)F)cc4)C3)nc12 [Example 930, 2-[(R)-4-(4-trifluoromethoxy-benzenesulfonyl)-3-(4-trifluoromethoxy-benzylcarbamoyl)-piperazin-1-yl]-thiazolo[4,5-d]pyridazine-4-carboxylic acid dimethylamide] | < 100 nM | < 100 nM |
| O=C(NCc1ccc(OC(F)F)cc1)[C@H]1CN(c2nc3nc(Cl)ncc3s2)CCN1S(=O)(=O)c1ccc(OC(F)(F)F)cc1 [Example 931, (R)-4-(5-chloro-thiazolo[4,5-d]pyrimidin-2-yl)-1-(4-trifluoromethoxy-benzenesulfonyl)-piperazine-2-carboxylic acid 4-difluoromethoxy-benzylamide] | < 100 nM | < 100 nM |
| O=C(NCc1ccc(OC(F)F)cc1)[C@H]1CN(c2nc3ncncc3s2)CCN1S(=O)(=O)c1ccc(OC(F)(F)F)cc1 [Example 932, (R)-4-thiazolo[4,5-d]pyrimidin-2-yl-1-(4-trifluoromethoxy-benzenesulfonyl)-piperazine-2-carboxylic acid 4-difluoromethoxy-benzylamide] | < 100 nM | < 100 nM |
| Cc1nnc2sc(N3CCN(S(=O)(=O)c4ccc(OC(F)(F)F)cc4)[C@@H](C(=O)NCc4ccc(OC(F)(F)F)cc4)C3)nn12 [Example 933, (R)-4-(3-methyl-[1,2,4]triazolo[3,4-b][1,3,4]thiadiazol-6-yl)-1-(4-trifluoromethoxy-benzenesulfonyl)-piperazine-2-carboxylic acid 4-trifluoromethoxy-benzylamide] | < 100 nM | < 100 nM |
| CCC(F)(F)c1ccc(CNC(=O)[C@H]2CN(c3nc4nc(C)nc(Cl)c4s3)CCN2S(=O)(=O)c2ccc(C(F)(F)F)cc2)cc1 [Example 934, (R)-4-(7-chloro-5-methyl-thiazolo[4,5-d]pyrimidin-2-yl)-1-(4-trifluoromethyl-benzenesulfonyl)-piperazine-2-carboxylic acid 4-(1,1-difluoro-propyl)-benzylamide] | < 100 nM | < 100 nM |
| CCC(F)(F)c1ccc(CNC(=O)[C@H]2CN(c3nc4nc(C)ncc4s3)CCN2S(=O)(=O)c2ccc(C(F)(F)F)cc2)cc1 [Example 935, (R)-4-(5-methyl-thiazolo[4,5-d]pyrimidin-2-yl)-1-(4-trifluoromethyl-benzenesulfonyl)-piperazine-2-carboxylic acid 4-(1,1-difluoro-propyl)-benzylamide] | < 100 nM | < 100 nM |
| O=C(NCc1ccc(OC(F)(F)F)cc1)[C@H]1CN(C(=O)Nc2nnc(Br)s2)CCN1S(=O)(=O)c1ccc(OC(F)(F)F)cc1 [Example 936, (R)-4-(4-trifluoromethoxy-benzenesulfonyl)-piperazine-1,3-dicarboxylic acid 1-[(5-bromo-[1,3,4]thiadiazol-2-yl)-amide] 3-(4-trifluoromethoxy-benzylamide)] | > 1000 nM | > 1000 nM |
| O=C(NCc1ccc(OC(F)(F)F)cc1)[C@H]1CN(c2nc3c(=O)[nH]ncc3s2)CCN1S(=O)(=O)c1ccc(OC(F)(F)F)cc1 [Example 937, (R)-4-(4-oxo-4,5-dihydro-thiazolo[4,5-d]pyridazin-2-yl)-1-(4-trifluoromethoxy-benzenesulfonyl)-piperazine-2-carboxylic acid 4-trifluoromethoxy-benzylamide] | < 100 nM | < 100 nM |
| COC(F)(F)c1ccc(CNC(=O)[C@H]2CN(c3nc4cn[nH]c(=O)c4s3)CCN2S(=O)(=O)c2ccc(OC(F)(F)F)cc2)cc1 [Example 938, (R)-4-(7-oxo-6,7-dihydro-thiazolo[4,5-d]pyridazin-2-yl)-1-(4-trifluoromethoxy-benzenesulfonyl)-piperazine-2-carboxylic acid 4-(difluoro-methoxy-methyl)-benzylamide] | < 100 nM | 100 to 1000 nM |
| O=C(NCc1ccc(OC(F)(F)F)cc1)[C@H]1CN(c2nc3c(CO)nncc3s2)CCN1S(=O)(=O)c1ccc(OC(F)(F)F)cc1 [Example 940, (R)-4-(4-hydroxymethyl-thiazolo[4,5-d]pyridazin-2-yl)-1-(4-trifluoromethoxy-benzenesulfonyl)-piperazine-2-carboxylic acid 4-trifluoromethoxy-benzylamide] | < 100 nM | < 100 nM |
| Cc1nc(Cl)c2sc(N3CCN(S(=O)(=O)c4ccc(OC(F)(F)F)cc4)[C@@H](C(=O)NCc4ccc(OC(F)F)cc4)C3)nc2n1 [Example 941, (R)-4-(7-chloro-5-methyl-thiazolo[4,5-d]pyrimidin-2-yl)-1-(4-trifluoromethoxy-benzenesulfonyl)-piperazine-2-carboxylic acid 4-difluoromethoxy-benzylamide] | < 100 nM | < 100 nM |
| Cc1ncc2sc(N3CCN(S(=O)(=O)c4ccc(OC(F)(F)F)cc4)[C@@H](C(=O)NCc4ccc(OC(F)F)cc4)C3)nc2n1 [Example 942, (R)-4-(5-methyl-thiazolo[4,5-d]pyrimidin-2-yl)-1-(4-trifluoromethoxy-benzenesulfonyl)-piperazine-2-carboxylic acid 4-difluoromethoxy-benzylamide] | < 100 nM | < 100 nM |
| Nc1ncc2sc(N3CCN(S(=O)(=O)c4ccc(OC(F)(F)F)cc4)[C@@H](C(=O)NCc4ccc(OC(F)(F)F)cc4)C3)nc2n1 [Example 943, (R)-4-(5-amino-thiazolo[4,5-d]pyrimidin-2-yl)-1-(4-trifluoromethoxy-benzenesulfonyl)-piperazine-2-carboxylic acid 4-trifluoromethoxy-benzylamide] | < 100 nM | < 100 nM |
| COc1nncc2nc(N3CCN(S(=O)(=O)c4ccc(OC(F)(F)F)cc4)[C@@H](C(=O)NCc4ccc(OC(F)(F)F)cc4)C3)sc12 [Example 944, (R)-4-(7-methoxy-thiazolo[4,5-d]pyridazin-2-yl)-1-(4-trifluoromethoxy-benzenesulfonyl)-piperazine-2-carboxylic acid 4-trifluoromethoxy-benzylamide] | < 100 nM | < 100 nM |
